{"source": "patent US20240409935A1", "about": "“Atg8ylation coordinates stress granule formation and mTOR inactivation in response to lysosomal damage” (priority 2023, published 2024)", "key": {"[1]": {"system": "G3BP1 puncta (stress granules) in U2OS cells", "assay": "HCM quantification of G3BP1 puncta (stress granule formation) in U2OS cells", "assay_type": "cell-based, human", "conditions": "for SG formation response (G3BP1 puncta): agent alone for 30 min (2 mM LLOMe, 200 μM GPN, 400 μg/mL silica, 4 mM LOMe)"}, "[2]": {"system": "eIF2α (S51) phosphorylation", "assay": "Immunoblot analysis of eIF2α (S51) phosphorylation in U2OS cells", "assay_type": "cell-based, human"}, "TFEB": {"system": "TFEB", "assay": "TFEB nuclear translocation (HCM) and TFEB (S142) phosphorylation in Huh7 cells", "assay_type": "cell-based, human", "conditions": "530 nM AZD6244 for 2 h, 1 mM LLOMe for 30 min", "description": "FIGS. 2SA-2SG show the cellular transcriptional response during lysosomal damage. FIG. 2SA RNAseq analysis of the change on gene expression in HEK293T cells in response to 1 mM LLOMe treatment for 30 min. […] The dotted line indicates the significance cut-off (P<0.05). […] Ctrl, control (untreated cells). […] Blue: nuclei, Hoechst 33342. Red: anti-TFEB antibody, Alexa Fluor 568. White masks, computer-algorithm-defined cell boundaries. Pink masks, computer-identified nuclear TFEB based on the average intensity of Alexa Fluor 568 fluorescence. […] Red masks, computer-identified G3BP1 puncta. […] Red masks, computer-identified G3BP1 puncta. Ctrl, control (untreated cells). Data, means±SEM; HCM: n≥3 (each experiment: 500 valid primary objects/cells per Well, ≥5 Well s/sample). **p<0.01, ANOVA."}, "[3]": {"system": "ALIX puncta in U2OS cells", "assay": "HCM quantification of ALIX puncta in U2OS cells", "assay_type": "cell-based, human", "conditions": "15 μM BAPTA-AM for 1 h, then 2 mM LLOMe for 30 min", "description": "Cells Were treated with 2 mM LLOMe for 30 min. White masks, algorithm-defined cell boundaries; red masks, computer-identified G3BP1 puncta. […] Cells Were treated with 2 mM LLOMe for 30 min. White masks, algorithm-defined cell boundaries; green masks, computer-identified ALIX puncta. NT, untreated cells. Data, means±SEM (n=3); HCM: n≥3 (each experiment: 500 valid primary objects/cells per Well, ≥5 Well s/sample). †p≥0.05 (not significant), **p<0.01, ANOVA. See also FIG. 11."}, "[4]": {"system": "G3BP1 puncta in THP-1 cells", "assay": "Stress granule formation in THP-1 cells", "assay_type": "cell-based, human", "description": "(§1) FIGS. 12SA-12SF. Stress granules are important for cell survival in response to lysosomal damage in disease states. […] White masks, algorithm-defined cell boundaries; red masks, computer-identified LTR puncta. […] White masks, algorithm-defined cell boundaries; green masks, computer-identified ALIX puncta. […] White masks, algorithm-defined cell boundaries; red masks, computer-identified G3BP1 puncta. […] Cells Were treated with 200 μg/mL silica for 4 h in the presence or absence of 100 nM ISRIB, and then stained with propidium iodide PI (dead cells) and Hoechst-33342 (total cells). White masks, algorithm-defined cell boundaries; red masks, computer-identified PI^+ nuclei. […]\nHow does SG formation affect cell fate during lysosomal damage? […] The inventors quantified the number of SGs using the canonical SG marker polyA RNA (Ivanov et al., 2019) via high-content microscopy (HCM) (FIG. S1B) and verified the depletion of SG formation in ΔΔG3BP1/2 cells when exposed to the lysosome-specific damaging agent L-leucyl-L-leucine methyl ester (LLOMe) (Jia et al., 2022; Tan et al., 2022; Thiele et al., 1990) (FIG. 7SB). A propidium iodide (PI) uptake assay measuring plasma membrane integrity (Crowley et al., 2016; Liu et al., 2023) was adapted to quantify cell survival during lysosomal damage using HCM. […]"}, "ATF4": {"system": "ATF4", "assay": "ATF4 expression in THP-1 cells", "assay_type": "cell-based, human"}, "THP-1 cells": {"system": "THP-1 cells", "assay": "Cell survival of THP-1 cells", "assay_type": "cell-based"}, "[5]": {"system": "human peripheral blood monocyte-derived macrophages (hMDM)", "assay": "PI uptake cell death assay (HCM) in hMDM", "assay_type": "cell-based", "description": "Cells Were treated with 2 mM LLOMe for 30 min, and then stained with propidium iodide (PI) (dead cells) and Hoechst-33342 (total cells). White masks, algorithm-defined cell boundaries (primary objects); red masks, computer-identified PI^+ nuclei (target objects). […] Cells Were treated with 2 mM LLOMe for 30 min. […] Cells Were treated with 2 mM in the presence or absence of 10 μg/ml cycloheximide (CHX) for 30 min, and then stained with PI (dead cells) and Hoechst-33342 (total cells). […] Scale bar, 10 μm. […] Cells Were treated with 2 mM LLOMe with or without CHX for 30 min, and then stained using Live/Dead™ stain kit (ThermoFisher). […] Cells Were treated with 2 mM LLOMe for 30 min, and then stained with PI (dead cells), Hoechst-33342 (total cells) or eIF4G. (i) HCM images: white masks, algorithm-defined cell boundaries; green masks, computer-identified eIF4G puncta; red masks, computer-identified PI^+ nuclei (target objects); (ii and iii) corresponding HCM quantification. […] Cells Were treated with 2 mM LLOMe for 30 min. […] CTR, control; NT, untreated cells. Data, means±SEM (n=3); HCM: n≥3 (each experiment: 500 valid primary objects/cells per Well, ≥5 Well s/sample). †p≥0.05 (not significant), *p<0.05, **p<0.01, ANOVA. See also FIG. 7S.\nas §1"}, "[6]": {"system": "Galectin-3 puncta in BMM cells", "assay_type": "cell-based, murine"}, "mTOR": {"system": "mTOR", "assay": "mTOR/mTORC1 activity by phosphorylation of its substrates (4EBP1 S65, ULK1 S757, S6K1 T389) in U2OS cells", "assay_type": "cell-based, human"}, "[7]": {"system": "NUFIP2, G3BP1 and TIA1 on lysosomes", "assay_type": "cell-based, human"}, "U2OS cells": {"system": "U2OS cells", "assay": "LDH release assay in U2OS cells", "assay_type": "cell-based, human", "conditions": "LLOMe plus cycloheximide", "from_the_text": "How does SG formation affect cell fate during lysosomal damage? The inventors utilized SG deficient U2OS cells (human osteosarcoma epithelial cell line) genetically lacking both G3BP1 and G3BP2 (ΔΔG3BP1/2) (Nancy Kedersha et al., 2016), which are essential factors for SG formation (Guillén-Boixet et al., 2020; Nancy Kedersha et al., 2016; P. Yang et al., 2020) (FIG. 7SA). The inventors quantified the number of SGs using the canonical SG marker polyA RNA (Ivanov et al., 2019) via high-content microscopy (HCM) (FIG. S1B) and verified the depletion of SG formation in ΔΔG3BP1/2 cells when exposed to the lysosome-specific damaging agent L-leucyl-L-leucine methyl ester (LLOMe) (Jia et al., 2022; Tan et al., 2022; Thiele et al., 1990) (FIG. 7SB). A propidium iodide (PI) uptake assay measuring plasma membrane integrity (Crowley et al., 2016; Liu et al., 2023) was adapted to quantify cell survival during lysosomal damage using HCM. […] This was additionally confirmed by using a lactate dehydrogenase (LDH) release assay measuring non-specific leak from cells (Chan et al., 2013; Kumar et al., 2018) (FIG. 1B). […] Elevated cell death, as quantified by PI uptake assay (FIG. 1F (i, iii)) and the LDH release assay (FIG. 1G), was detected in G3BP1/2^DKD in response to LLOMe treatment. […]"}, "[8]": {"system": "human peripheral blood monocyte-derived macrophages (hMDM)", "conditions": "1 μg/ml cycloheximide"}, "[9]": {"system": "human peripheral blood monocyte-derived macrophages (hMDM)", "conditions": "hemozoin (10.0 mg/mL) 4 h, 1 μg/ml cycloheximide"}, "PKR": {"system": "PKR", "assay": "LysoIP immunoblotting of PKR and eIF2α phosphorylation on damaged lysosomes from HEK293T cells", "assay_type": "cell-based, human", "conditions": "1 mM LLOMe with 210 nM imidazolo-oxindole C16 for 1 h"}}, "note": "Residues, ends and D or L forms follow the SMILES beside them. *: point of attachment. βNA = c1ccc2cc(N*)ccc2c1"}
{"smiles": "Nc1ncc2[nH]cnc2n1", "note": "[2-AP, 2-aminopurine]", "values": [{"measurement": "SG formation in response to LLOMe treatment, with 2-AP", "setting": "[1]; 2-AP for 1 h followed by 2 mM LLOMe for 30 min", "result": "inhibited, in a dose-response fashion, SG formation"}, {"measurement": "eIF2α phosphorylation in cells treated with LLOMe, with PKR inhibitor", "setting": "[2]; U2OS cells, 2-AP for 1 h followed by 2 mM LLOMe for 30 min", "result": "inhibited eIF2α phosphorylation"}]}
{"smiles": "Cn1cnc2c(F)c(Nc3ccc(Br)cc3Cl)c(C(=O)NOCCO)cc21", "note": "[AZD6244]", "values": [{"measurement": "nuclear translocation of TFEB and dephosphorylation at Ser142: lysosomal damage compared with AZD6244", "setting": "TFEB", "result": "equal in magnitude"}]}
{"smiles": "CC(=O)OCOC(=O)CN(CC(=O)OCOC(C)=O)c1ccccc1OCCOc1ccccc1N(CC(=O)OCOC(C)=O)CC(=O)OCOC(C)=O", "note": "[BAPTA-AM]", "values": [{"measurement": "SG formation during lysosomal damage, with BAPTA-AM", "setting": "[1]; 15 μM BAPTA-AM for 1 h, then 2 mM LLOMe for 30 min", "result": "significant reduction in SG formation"}, {"measurement": "eIF2α phosphorylation during lysosomal damage, with BAPTA-AM", "setting": "[2]; U2OS cells, 15 μM BAPTA-AM for 1 h, then 2 mM LLOMe for 30 min", "result": "significant reduction"}, {"measurement": "ALIX puncta formation upon lysosomal damage, with BAPTA-AM", "setting": "[3]", "result": "decrease in ALIX puncta formation"}]}
{"smiles": "NCC(=O)N[C@@H](Cc1ccccc1)C(=O)Nc1ccc2ccccc2c1", "note": "[GPN, glycyl-L-phenylalanine-2-naphthyl amide] (H-Gly-Phe-βNA)", "values": [{"measurement": "SG formation response (G3BP1 puncta)", "setting": "[1]", "result": "strong SG formation response"}]}
{"smiles": "O=C(COc1ccc(Cl)cc1)N[C@H]1CC[C@@H](NC(=O)COc2ccc(Cl)cc2)CC1", "note": "[ISRIB, N,N′-((1s,4s)-cyclohexane-1,4-diyl)bis(2-(4-chlorophenoxy)acetamide)]", "values": [{"measurement": "SG formation upon lysosomal damage, with ISRIB", "setting": "[4]", "result": "prevented SG formation"}, {"measurement": "ATF4 expression levels upon lysosomal damage, with ISRIB", "setting": "ATF4", "result": "reduction in ATF4 expression levels"}, {"measurement": "cell survival upon lysosomal damage, with ISRIB", "setting": "THP-1 cells", "result": "decrease in cell survival"}, {"measurement": "cell death by PI uptake assay during tau oligomer treatment, with ISRIB", "setting": "[5]; 10 μg/mL tau oligomer for 4 h, 100 nM ISRIB", "result": "comparable effect on cell death"}, {"measurement": "cell death by PI uptake assay during silica treatment, with ISRIB", "setting": "[5]; 200 μg/mL silica for 4 h, 100 nM ISRIB", "result": "comparable effect on cell death"}]}
{"smiles": "COC(=O)[C@@H](N)CC(C)C", "note": "[LOMe]", "values": [{"measurement": "SG formation response (G3BP1 puncta)", "setting": "[1]", "result": "did not induce SG formation"}]}
{"smiles": "O=[As][O-].[Na+]", "note": "[arsenite, NaAsO2]", "values": [{"measurement": "lysosomal damage monitored by Galectin-3 response", "setting": "[6]", "result": "did not induce lysosomal damage"}, {"measurement": "eIF2α phosphorylation under arsenic stress", "setting": "[2]", "result": "led to eIF2α phosphorylation"}, {"measurement": "mTORC1 activity under arsenic stress", "setting": "mTOR", "result": "activating mTORC1 activity"}, {"measurement": "enrichment of NUFIP2, G3BP1 and TIA1 on purified lysosomes", "setting": "[7]", "result": "not on lysosomes purified from cells treated with arsenite"}]}
{"smiles": "C[C@@H]1C[C@@H]([C@H](O)CC2CC(=O)NC(=O)C2)C(=O)[C@@H](C)C1", "note": "[cycloheximide]", "values": [{"measurement": "SG formation (G3BP1 puncta) following LLOMe treatment, with cycloheximide", "setting": "[1]", "result": "inhibited SG formation"}, {"measurement": "cell survival by LDH release, with cycloheximide during lysosomal damage", "setting": "U2OS cells", "result": "increased LDH release"}, {"measurement": "cell death by PI uptake assay during LLOMe treatment, with cycloheximide", "setting": "[5]; 2 mM LLOMe with 10 μg/ml cycloheximide for 30 min", "result": "significant increase in cell death"}, {"measurement": "cell death (AMNIS, Live/Dead) during tau oligomer treatment, with cycloheximide", "setting": "[8]; 10 μg/mL tau oligomer for 4 h", "result": "augmented cell death"}, {"measurement": "cell death (AMNIS, Live/Dead) during silica treatment, with cycloheximide", "setting": "[8]; 200 μg/mL silica for 4 h", "result": "augmented cell death"}, {"measurement": "cell death by LDH release assay in response to hemozoin, with cycloheximide", "setting": "[9]", "result": "increased cell death"}]}
{"smiles": "O=C1Nc2ccc3ncsc3c2/C1=C/c1cnc[nH]1", "note": "[imidazolo-oxindole C16]", "values": [{"measurement": "SG formation during lysosomal damage, with C16", "setting": "[1]; 210 nM imidazolo-oxindole C16 for 2 h followed by 2 mM LLOMe for 30 min", "result": "reduced SG formation"}, {"measurement": "phosphorylation of both PKR and eIF2α on damaged lysosomes, with C16", "setting": "PKR", "result": "effectively blocked"}]}
